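A five-concentration, 48-hour dose response in 96-well plates underlies each endpoint, interpolated linearly between surrounding concentrations. GI50 = concentration required for 50% inhibition of growth. TGI marks complete inhibition of growth.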
Columns and labels:
Experiment in all cases: NCI anticancer screen, dose series, 48 h
OVCAR-3 ovarian = system: OVCAR-3 ovarian
UO-31 renal = system: UO-31 renal
OVCAR-4 ovarian = system: OVCAR-4 ovarian
SNB-19 CNS = system: SNB-19 CNS
NCI-H23 lung = system: NCI-H23 lung
T-47D breast = system: T-47D breast
HCC-2998 colon = system: HCC-2998 colon
HOP-92 NSCLC = system: HOP-92 NSCLC
HCT-15 colon = system: HCT-15 colon
SF-268 CNS = system: SF-268 CNS
NCI-H460 lung = system: NCI-H460 lung
ACHN renal = system: ACHN renal
SN12C renal = system: SN12C renal
NCI-H522 lung = system: NCI-H522 lung
MALME-3M melanoma = system: MALME-3M melanoma
KM12 colon = system: KM12 colon
MCF7 breast = system: MCF7 breast
UACC-257 melanoma = system: UACC-257 melanoma
DU-145 prostate = system: DU-145 prostate
TK-10 renal = system: TK-10 renal
BT-549 breast = system: BT-549 breast
CAKI-1 renal = system: CAKI-1 renal
UACC-62 melanoma = system: UACC-62 melanoma
A498 renal = system: A498 renal
RPMI-8226 leukemia = system: RPMI-8226 leukemia
SK-MEL-2 melanoma = system: SK-MEL-2 melanoma
SNB-75 CNS = system: SNB-75 CNS
COLO 205 colon = system: COLO 205 colon
MOLT-4 leukemia = system: MOLT-4 leukemia
SK-OV-3 ovarian = system: SK-OV-3 ovarian
HT29 colon = system: HT29 colon
SF-295 CNS = system: SF-295 CNS
M14 melanoma = system: M14 melanoma
786-0 renal = system: 786-0 renal
HL-60(TB) leukemia = system: HL-60(TB) leukemia
SW-620 colon = system: SW-620 colon
SK-MEL-5 melanoma = system: SK-MEL-5 melanoma
A549 NSCLC = system: A549 NSCLC
MDA-MB-435 = system: MDA-MB-435
HS 578T breast = system: HS 578T breast
OVCAR-5 ovarian = system: OVCAR-5 ovarian
HCT-116 colon = system: HCT-116 colon
SF-539 CNS = system: SF-539 CNS
OVCAR-8 ovarian = system: OVCAR-8 ovarian
MDA-MB-231 breast = system: MDA-MB-231 breast
U251 CNS = system: U251 CNS
PC-3 prostate = system: PC-3 prostate
CCRF-CEM leukemia = system: CCRF-CEM leukemia
SK-MEL-28 melanoma = system: SK-MEL-28 melanoma
NCI/ADR-RES ovarian = system: NCI/ADR-RES ovarian
RXF 393 renal = system: RXF 393 renal
LOX IMVI melanoma = system: LOX IMVI melanoma
EKVX NSCLC = system: EKVX NSCLC
SR leukemia = system: SR leukemia
NCI-H226 lung = system: NCI-H226 lung
IGROV1 ovarian = system: IGROV1 ovarian
HOP-62 NSCLC = system: HOP-62 NSCLC
K-562 leukemia = system: K-562 leukemia

COc1cc(Nc2cc(O)c3c(=O)cc(-c4ccccc4)oc3c2)cc(OC)c1
GI50 (OVCAR-3 ovarian): 274 nM
TGI (OVCAR-3 ovarian): 1640 nM
GI50 (UO-31 renal): 763 nM
TGI (UO-31 renal): 30700 nM
GI50 (OVCAR-4 ovarian): 8610 nM
TGI (OVCAR-4 ovarian): 41900 nM
GI50 (SNB-19 CNS): 533 nM
TGI (SNB-19 CNS): 22800 nM
GI50 (NCI-H23 lung): 922 nM
TGI (NCI-H23 lung): 40000 nM
GI50 (T-47D breast): 251 nM
TGI (T-47D breast): > 100000 nM
GI50 (HCC-2998 colon): 2310 nM
TGI (HCC-2998 colon): > 54000 nM
GI50 (HOP-92 NSCLC): 944 nM
TGI (HOP-92 NSCLC): 17700 nM
GI50 (HCT-15 colon): 104 nM
TGI (HCT-15 colon): > 100000 nM
GI50 (SF-268 CNS): 909 nM
TGI (SF-268 CNS): 30900 nM
GI50 (NCI-H460 lung): 390 nM
TGI (NCI-H460 lung): > 35300 nM
GI50 (ACHN renal): 628 nM
TGI (ACHN renal): > 100000 nM
GI50 (SN12C renal): 736 nM
TGI (SN12C renal): 75500 nM
GI50 (NCI-H522 lung): 203 nM
TGI (NCI-H522 lung): 4390 nM
GI50 (MALME-3M melanoma): 754 nM
TGI (MALME-3M melanoma): > 100000 nM
GI50 (KM12 colon): 282 nM
TGI (KM12 colon): > 39200 nM
GI50 (MCF7 breast): 35.7 nM
TGI (MCF7 breast): > 100000 nM
GI50 (UACC-257 melanoma): 39100 nM
TGI (UACC-257 melanoma): > 100000 nM
GI50 (DU-145 prostate): 476 nM
TGI (DU-145 prostate): 20900 nM
GI50 (TK-10 renal): 4940 nM
TGI (TK-10 renal): 46600 nM
GI50 (BT-549 breast): 651 nM
TGI (BT-549 breast): > 52300 nM
GI50 (CAKI-1 renal): 335 nM
TGI (CAKI-1 renal): 16800 nM
GI50 (UACC-62 melanoma): 387 nM
TGI (UACC-62 melanoma): > 37400 nM
GI50 (A498 renal): 351 nM
TGI (A498 renal): 9030 nM
GI50 (RPMI-8226 leukemia): 471 nM
TGI (RPMI-8226 leukemia): > 100000 nM
GI50 (SK-MEL-2 melanoma): 537 nM
TGI (SK-MEL-2 melanoma): 40400 nM
GI50 (SNB-75 CNS): 193 nM
TGI (SNB-75 CNS): 750 nM
GI50 (COLO 205 colon): 4680 nM
TGI (COLO 205 colon): > 100000 nM
GI50 (MOLT-4 leukemia): 595 nM
TGI (MOLT-4 leukemia): > 100000 nM
GI50 (SK-OV-3 ovarian): 548 nM
TGI (SK-OV-3 ovarian): 18600 nM
GI50 (HT29 colon): 3330 nM
TGI (HT29 colon): > 36900 nM
GI50 (SF-295 CNS): 389 nM
TGI (SF-295 CNS): 8330 nM
GI50 (M14 melanoma): 466 nM
TGI (M14 melanoma): > 100000 nM
GI50 (786-0 renal): 1340 nM
TGI (786-0 renal): 21900 nM
GI50 (HL-60(TB) leukemia): 355 nM
GI50 (SW-620 colon): 377 nM
TGI (SW-620 colon): > 100000 nM
GI50 (SK-MEL-5 melanoma): 169 nM
TGI (SK-MEL-5 melanoma): 9970 nM
GI50 (A549 NSCLC): 788 nM
TGI (A549 NSCLC): 97300 nM
GI50 (MDA-MB-435): 147 nM
TGI (MDA-MB-435): 498 nM
GI50 (HS 578T breast): 338 nM
GI50 (OVCAR-5 ovarian): 1290 nM
TGI (OVCAR-5 ovarian): > 47500 nM
GI50 (HCT-116 colon): 407 nM
TGI (HCT-116 colon): > 100000 nM
GI50 (SF-539 CNS): 338 nM
TGI (SF-539 CNS): 1930 nM
GI50 (OVCAR-8 ovarian): 900 nM
TGI (OVCAR-8 ovarian): 23900 nM
GI50 (MDA-MB-231 breast): 964 nM
TGI (MDA-MB-231 breast): 18400 nM
GI50 (U251 CNS): 484 nM
TGI (U251 CNS): 18300 nM
GI50 (PC-3 prostate): 815 nM
TGI (PC-3 prostate): > 52100 nM
GI50 (CCRF-CEM leukemia): 411 nM
TGI (CCRF-CEM leukemia): > 100000 nM
GI50 (SK-MEL-28 melanoma): 2840 nM
TGI (SK-MEL-28 melanoma): > 100000 nM
GI50 (NCI/ADR-RES ovarian): 437 nM
TGI (NCI/ADR-RES ovarian): 25000 nM
GI50 (RXF 393 renal): 329 nM
TGI (RXF 393 renal): 1830 nM
GI50 (LOX IMVI melanoma): 581 nM
TGI (LOX IMVI melanoma): > 100000 nM
GI50 (EKVX NSCLC): 769 nM
TGI (EKVX NSCLC): > 100000 nM
GI50 (SR leukemia): 253 nM
TGI (SR leukemia): > 100000 nM
GI50 (NCI-H226 lung): 2570 nM
TGI (NCI-H226 lung): 48000 nM
GI50 (IGROV1 ovarian): 409 nM
TGI (IGROV1 ovarian): 32400 nM
GI50 (HOP-62 NSCLC): 795 nM
TGI (HOP-62 NSCLC): 20900 nM
GI50 (K-562 leukemia): 311 nM
TGI (K-562 leukemia): > 100000 nM

— PubChem BioAssay (NCI)
